The values that follow come from patent US20210038585A1 (Tesaro, Inc., priority 2017, published 2021).

Each structure is given as a SMILES string. Several values for one entry are separate records, joined by “and”; a condition that tells them apart may be missing. Equal values may be shown once. Read-outs that look alike come from different tables or passages of the source.

The conditions of data set [1]: drug substance. As for the experimental part: These batches were divided into sub-lots at various time intervals and each sub-lot was analyzed for content uniformity.
For data set [2] the following is noted: crystalline solid drug substance.
Data set [3] deals with intracellular PARP activity.
Data set [4] concerns cancer cells with mutant BRCA-1 and BRCA-2. The conditions noted are these: read-out: inhibited proliferation, CC50; cited from earlier work.
A short description of the next data set: in vivo. The settings on record: 50 mg/kg.
For data set [5], the system named is intracellular PARP activity. The conditions noted are these: read-out: inhibited PARP activity in a whole cell assay, EC50; cited from earlier work.
Data set [6] is described as follows: wall friction test, FT-4 powder rheometer, stainless steel discs. Type of data set: physicochemical. The settings on record: niraparib batches, Ra 0.05; for BD (bulk density): wall friction test. The text has this:
A Wall Friction test can be used to provide a measurement of the sliding resistance between a powder and the surface of process equipment, such as an encapsulator or blender or hopper. This can be important for understanding discharge behavior from hoppers, continuity of flow in transfer chutes and tablet ejection forces. It is also useful when investigating whether a powder will adhere to the wall of process equipment and various other surfaces, such as the inside of sachets, capsules and other packaging material. The measurement principle is very similar to the shear cell test, but rather than shearing powder against powder, in this test a coupon of material representing the process equipment wall is sheared against the powder in question. The FT4 Wall Friction accessory allows for a range of coupons to be investigated, and bespoke surfaces can be manufactured if required. Data is typically represented as a plot of shear stress against normal stress, allowing the determination of Wall Friction Angle (phi). The greater the wall friction angle, the higher the resistance between the powder and wall coupon.
The measurement principle is very similar to the shear cell test, but rather than shearing powder against powder, in this test a coupon of material representing the process equipment wall is sheared against the powder in question. The FT4 Wall Friction accessory allows for a range of coupons to be investigated. Wall Friction is typically represented as a plot of shear stress against normal stress, allowing the determination of Wall Friction Angle (phi). The greater the wall friction angle, the higher the resistance between the powder and wall coupon.
A wall friction test method was developed to assess the interaction between the drug substance and stainless steel. […]
The head continues to move downwards until the required normal stress is established. […] The torque required to maintain this rotational is measured which enables a “steady-state” shear stress to be calculated. […] A series of shear stress values is measured for a range of target applied stresses. […]

A short description of data set [7]: shear cell tests using a FT-4 powder rheometer. The format is physicochemical. The conditions noted are these: niraparib drug substance; for BD (bulk density): shear cell test. As for the experimental part:
As used herein, “flow function” or FF is a parameter commonly used to rank powder's flowability and is determined using a shear test. The data produced in the shear test represents the relationship between shear stress and normal stress, which can be plotted to define the powder's Yield Locus. Fitting Mohr stress circles to the yield locus identifies the Major Principle Stress (MPS) and Unconfined Yield Strength (UYS). Flow function is the ratio of Major Principle Stress (MPS) to the Unconfined Yield Strength (UYS):
Shear testing can be used measure powder shear properties which involves the stress limit required to initiate a powder flow. The shear testing uses a segmented rotational shear cell head and a 10 ml powder sample in the borosilicate test vessel. Powder is filled into the vessel. The shear cell head is simultaneously rotated and moved axially under the powder sample at pre-determined normal stresses as the shear stresses are measured to calculate several parameters, including the flow function (FF). Usually, powders of low cohesion have higher FF and that represents better flow properties. The permeability test can measure the ease of air transmission through a bulk powder which can be related to the powder's flowability. For example, a permeability testing can use a vented piston with an aeration base and 10 mL powder sample in the borosilicated test vessel.
Samples of powder compositions were prepared to evaluate the powder compositions disclosed herein. The following tests/measurements were made using a FT-4 powder rheometer from Freeman technology.
The cohesion (kPa), Unconfined Yield Strength (UYS) (kPa), Maj or Principle Stress (MPS) (kPa), flow function (FF) (MPS/UYS), Angle of internal friction (AIF), and bulk density (BD) (g/cm^3) were determined by carrying out shear cell tests using a FT-4 powder rheometer and the results can be seen in the tables below: […]

As to `Cc1ccc(S(=O)(=O)O)cc1.NC(=O)c1cccc2cn(-c3ccc([C@@H]4CCCNC4)cc3)nc12` [Niraparib tosylate monohydrate, 2-{4-[(3S)-piperidin-3-yl]phenyl}-2H-indazole 7-carboxamide 4-methylbenzenesulfonate hydrate (1:1:1)], in [1], the bulk density is reported as 0.34-0.45 g/cc and the tapped density is reported as 0.53-0.66 g/cc. Further, the hygroscopicity result in [2] was “non-hygroscopic”.
As a reminder, the IC50 is the concentration at which inhibition is half-maximal. The IC90 is the concentration at which the effect reaches the 90% level. By EC50 is commonly meant the midpoint of the concentration-response curve. For `NC(=O)c1cccc2cn(-c3ccc([C@@H]4CCCNC4)cc3)nc12` [Niraparib, 2-{4-[(3S)-piperidin-3-yl]phenyl}-2H-indazole-7-carboxamide], the “intracellular PARP activity IC90” value in data set [3] (mass concentration equivalent) is 0.016 µg/mL. For the same molecule, the IC50 in data set [3] (read-out: intracellular PARP activity IC50) stood at 4 nM. The IC90 in [3] (read-out: intracellular PARP activity IC90) turned out to be 50 nM. Further, the CC50 in data set [4] is 10 to 100 nM. Moreover, the tumor regression entry with tumor models (50 mg/kg, daily dosing) is on record as “tumor regression”; in the data set on tumor models (dosing switched from 75 mg/kg olaparib to 50 mg/kg niraparib), “tumor regression was achieved”. The molecule further came in with a concentration at 6 h in the data set “in vivo” of approximately 4570 ng/mL. The EC50 in data set [5] is 4 nM.
On to `Cc1ccc(S(=O)(=O)O)cc1.NC(=O)c1cccc2cn(-c3ccc(C4CCCNC4)cc3)nc12.O` (stereo not drawn) [Non Milled, Annealed A], for which, in data set [6], the “BD (bulk density)” value was 0.37 g/mL and 0.38 g/mL and 0.39 g/mL. Moreover, in data set [7], the “AIF (Angle of internal friction)” value was 36.54 ° and 35.80 °; the Cohesion is 1.10 kPa and 1.02 kPa; the “FF, flow function (MPS/UYS)” value was 4.27 and 4.66; the “MPS (Major Principle Stress)” value is 18.64 kPa and 18.50 kPa. For the same molecule, in [7], the “UYS (Unconfined Yield Strength)” value was 4.36 kPa and 3.97 kPa; the “BD (bulk density)” value was 0.38 g/mL and 0.37 g/mL.
In the case of `Cc1ccc(S(=O)(=O)O)cc1.NC(=O)c1cccc2cn(-c3ccc(C4CCCNC4)cc3)nc12.O` (stereo not drawn) [Non Milled, Annealed D], in data set [6], the “WFA (Wall friction angle)” value is 27.29 ° and 31.10 ° and 30.98 °; the “BD (bulk density)” value was 0.44 g/mL and 0.46 g/mL and 0.45 g/mL. Besides, in data set [7], the “AIF (Angle of internal friction)” value was 30.49 ° and 31.30 °; the Cohesion is 1.14 kPa and 1.06 kPa; the “FF, flow function (MPS/UYS)” value is 4.12 and 4.32; the “MPS (Major Principle Stress)” value is 16.44 kPa and 16.24 kPa. Further, in data set [7], the “UYS (Unconfined Yield Strength)” value is 3.99 kPa and 3.76 kPa; the “BD (bulk density)” value is 0.44 g/mL and 0.46 g/mL.
Consider `O=C(c1cc(Cc2n[nH]c(=O)c3ccccc23)ccc1F)N1CCN(C(=O)C2CC2)CC1` [olaparib], for which, in the data set with tumor models (same model, dose of 75 mg/kg), the tumor regression entry is given as “did not result in tumor regression”.
